Data: patent US20030232079A1, “DPC 333 formulation having unique biopharmaceutical characteristics” (priority 2002, published 2003)
Like-named read-outs stand apart in the source and are kept apart here.

Tests used:
Assay type in all cases: in vivo, human
[1] = Safety and tolerability of single oral doses of DPC 333 (AEs, clinical laboratory tests, ECGs, vital signs)
Protocol: (§1) The safety, tolerability, and pharmacokinetics of an oral dose form of DPC 333 were evaluated in a double-blind, placebo controlled, ascending single dose study in healthy male and female human subjects. Subjects in each cohort were randomized to receive either a single dose of DPC 333 (n=6) or placebo (n=2). Doses examined were 15, 25, 40, 80, 120, 225, 345, and 530 mg. Safety measurements included monitoring of AEs, standard clinical laboratory tests, ECGs, and vital sign measurements.

[2] = Double-blind, placebo controlled, ascending single dose pharmacokinetic study of oral DPC 333 in healthy subjects; settings: for half-life / Cmax / Tmax / AUC / AUC(0-inf) / concentration at 12 h: both sexes, human, plasma; for AUC: read-out: mean AUC from time zero to time infinity, range; for concentration at 12 h: read-out: C12 (plasma concentration at 12 hours) Mean
Protocol: as §1
(§2) Blood samples were obtained pre-dose (0 hour) and 0.25, 0.5, 1, 1.5, 2, 2.5, 3, 4, 6, 8, 12, 18, 24, 36 and 48 hours post-dose administration. DPC 333 was quantified plasma extracts from these blood samples by a solid phase method followed by turbo ion spray liquid chromatography employing tandem mass spectroscopic detection (LC/MS/MS). The validated assay range for DPC 333 using 0.2 mL of plasma was 1.05 to 2098 nM. The assay was specific for DPC 333.
(§3) The following pharmacokinetic parameters for DPC 333 were assessed following a single dose administration of the DPC 333 oral dosage form to a subject: Cmax, Tmax, AUC, T1/2, Clo, and C12. Cmax is defined as the observed maximum plasma concentration. Tmax is defined as the time of observed maximum plasma concentration. AUC is defined as the area under the plasma concentration-time curve from time zero to time infinity; T1/2 is defined as the terminal disposition half-life.

[3] = Effect of food on pharmacokinetics of oral DPC 333, two period crossover study (fasted vs high-fat breakfast); settings: for AUC(0-inf) / AUC(0-t) / Cmax: male, po, n = 6, mean ± SD
Protocol: as §2, §3
The effect of food on the safety, tolerability and pharmacokinetics of this oral dose form of DPC 333 was also examined in a randomized, open label, two period balanced crossover study in one cohort of male subjects. Each subject received a single oral 225 mg dose of DPC 333 on two occasions administered at least one week apart. On one occasion the dose was given in the fasted state and on the other occasion the dose was administered after a standard, high-fat breakfast meal. The following table provides pharmacokinetic data from this study.

[4] = Comparison of DPC 333 pharmacokinetics by gender in fasted subjects; settings: for half-life / AUC(0-inf) / Cmax / Tmax: human, plasma, oral, 225 mg; for half-life: harmonic mean ± pseudo-standard deviation; for AUC(0-inf) / Cmax: mean ± SD; for Tmax: read-out: Tmax (median)
Protocol: as §2, §3
Differences in pharmacokinetics of DPC 333 based upon gender were also examined. The following table provides a comparison of DPC 333 pharmacokinetics by gender in fasted subjects receiving a single dose of 225 mg of DPC 333.

[5] = Double-blind, placebo controlled, ascending single dose pharmacokinetic study of oral DPC 333 in healthy subjects; settings: single oral dose 80 mg, healthy volunteers, n = 12
[6] = single oral dose 15 mg, healthy volunteers, n = 6
[7] = single oral dose 25 mg, healthy volunteers, n = 6
[8] = single oral dose 40 mg, healthy volunteers, n = 6
[9] = single oral dose 80 mg, healthy volunteers, n = 12
[10] = single oral dose 120 mg, healthy volunteers, n = 6
[11] = single oral dose 225 mg, healthy volunteers, n = 6
[12] = single oral dose 345 mg, healthy volunteers, n = 6
[13] = single oral dose 530 mg, healthy volunteers, n = 6
[14] = administered with food compared to fasted state, 225 mg
[15] = fed/fasted, fasted treatment as the reference, 225 mg
[16] = human, plasma, 225 mg, Fasted, 225 mg single oral dose, male subjects
[17] = human, plasma, 225 mg, Fed (high-fat breakfast), 225 mg single oral dose, male subjects
[18] = female, Females (n = 6), Part 1: 225 mg (fasted)
[19] = male, Males (n = 6), Part 1: 225 mg (fasted)
[20] = male, Males (n = 6), Part 2: 225 mg (fasted)

## Cc1cc(COc2ccc([C@]3(N)CCN([C@H](CC(C)C)C(=O)NO)C3=O)cc2)c2ccccc2n1 [DPC 333, [1-(R)]-3-amino-N-hydroxy-alpha-(2-methylpropyl)-3-[4-[(2-methyl-4-quinolinyl)methoxy]phenyl]-2-oxo-1-pyrrolidineacetamide]
[1]; all safety parameters measured, doses 15 to 530 mg
  dose-related trends in safety parameters: no dose-related mean trends observed
[1]; doses 15 to 530 mg
  discontinuations because of an AE / serious AEs: no discontinuations because of an AE nor any serious AEs reported
[1]; doses evaluated, 15 to 530 mg
  criteria for an intolerable dose: criteria for an intolerable dose were not achieved
[1]; oral dose form, healthy volunteers
  tolerability: well tolerates
[2]; at a single dose greater than 225 mg
  increase in mean AUC (time zero to time infinity) with dose: greater than proportional increase
[2]; at the 345 mg and 530 mg doses
  increase in exposure (AUC) with dose: greater-than-proportional increase
[2]; oral, for the higher doses, read-out: mean half-life estimates (converted)
  half-life: ~6 h
[2]; oral, single dose administrations ranging from 15 mg to 530 mg, read-out: mean terminal disposition half-life (T1/2)
  half-life: 2 to 7 h
[2]; oral, single dose of 15 mg, read-out: mean maximum plasma concentration (Cmax), range
  Cmax: 0.088 to 0.18 µM
[2]; oral, single dose of 15 mg, read-out: mean time of maximum plasma concentration (Tmax), range
  Tmax: 0.5 to 1 h
[2]; oral, single dose of 25 mg
  AUC: 0.45 to 0.9 µM·h
[2]; oral, single dose of 25 mg, read-out: mean maximum plasma concentration (Cmax), range
  Cmax: 0.17 to 0.435 µM
[2]; oral, single dose of 25 mg, read-out: mean time of maximum plasma concentration (Tmax), range
  Tmax: 0.5 to 1 h
[2]; oral, single dose of 40 mg
  AUC: 0.93 to 1.43 µM·h
[2]; oral, single dose of 40 mg, read-out: mean time of maximum plasma concentration (Tmax), range
  Tmax: 0.25 to 1 h
[2]; oral, single dose of 40 mg, upper limit in μM, read-out: mean maximum plasma concentration (Cmax), range
  Cmax: 0.355 to 0.655 µM
[2]; oral, single dose of 80 mg
  AUC: 2.25 to 4.16 µM·h
[2]; oral, single dose of 80 mg, read-out: mean time of maximum plasma concentration (Tmax), range
  Tmax: 0.5 to 1 h
[2]; oral, single dose of 80 mg, upper limit in μM, read-out: mean maximum plasma concentration (Cmax), range
  Cmax: 0.965 to 1.87 µM
[2]; oral, single dose of 120 mg
  AUC: 3.33 to 6.21 µM·h
[2]; oral, single dose of 120 mg, read-out: mean maximum plasma concentration (Cmax), range
  Cmax: 1.54 to 2.35 µM
[2]; oral, single dose of 120 mg, read-out: mean time of maximum plasma concentration (Tmax), range
  Tmax: 0.5 to 1 h
[2]; oral, single dose of 225 mg
  AUC: 6.38 to 9.4 µM·h
[2]; oral, single dose of 225 mg, read-out: mean time of maximum plasma concentration (Tmax), range
  Tmax: 0.5 to 1 h
[2]; oral, single dose of 225 mg, upper limit in μM, read-out: mean maximum plasma concentration (Cmax), range
  Cmax: 2.62 to 3.65 µM
[2]; oral, single dose of 345 mg
  AUC: 18.4 to 28.8 µM·h
[2]; oral, single dose of 345 mg, read-out: mean maximum plasma concentration (Cmax), range
  Cmax: 6.58 to 15.4 µM
[2]; oral, single dose of 345 mg, read-out: mean time of maximum plasma concentration (Tmax), range
  Tmax: 0.25 to 1 h
[2]; oral, single dose of 530 mg
  AUC: 22 to 39.5 µM·h
[2]; oral, single dose of 530 mg, read-out: mean maximum plasma concentration (Cmax), range
  Cmax: 9.45 to 18.1 µM
[2]; oral, single dose of 530 mg, read-out: mean time of maximum plasma concentration (Tmax), range
  Tmax: 0.5 to 1 h
[2]; po, 15 mg, single oral dose 15 mg, healthy volunteers, n = 6, read-out: T½ Mean (harmonic mean) (converted)
  half-life: 2.18 h
[2]; po, 25 mg, single oral dose 25 mg, healthy volunteers, n = 6, read-out: T½ Mean (harmonic mean) (converted)
  half-life: 2.86 h
[2]; po, 40 mg, single oral dose 40 mg, healthy volunteers, n = 6, read-out: T½ Mean (harmonic mean) (converted)
  half-life: 3.41 h
[2]; po, 80 mg, single oral dose 80 mg, healthy volunteers, n = 12, read-out: T½ Mean (harmonic mean) (converted)
  half-life: 4.05 h
[2]; po, 120 mg, single oral dose 120 mg, healthy volunteers, n = 6, read-out: T½ Mean (harmonic mean) (converted)
  half-life: 4.89 h
[2]; po, 225 mg, single oral dose 225 mg, healthy volunteers, n = 6, read-out: T½ Mean (harmonic mean) (converted)
  half-life: 5.53 h
[2]; po, 345 mg, single oral dose 345 mg, healthy volunteers, n = 6, read-out: T½ Mean (harmonic mean) (converted)
  half-life: 6.39 h
[2]; po, 530 mg, single oral dose 530 mg, healthy volunteers, n = 6, read-out: T½ Mean (harmonic mean) (converted)
  half-life: 6.04 h
[2]; oral administration, post dose, doses 15 to 530 mg, read-out: Tmax values
  Tmax: < 1 h
[2]; [6]
  AUC(0-inf): 0.342 µM·h
  concentration at 12 h: 2.09 nM
  CLo (apparent oral clearance) Mean: 98.0 L/h
[2]; single oral dose 15 mg, healthy volunteers, n = 6, read-out: Cmax Mean
  Cmax: 0.134 µM
[2]; single oral dose 15 mg, healthy volunteers, n = 6, read-out: Tmax Median
  Tmax: 0.75 h
[2]; [7]
  AUC(0-inf): 0.676 µM·h
  concentration at 12 h: 4.41 nM
  CLo (apparent oral clearance) Mean: 85.7 L/h
[2]; single oral dose 25 mg, healthy volunteers, n = 6, read-out: Cmax Mean
  Cmax: 0.303 µM
[2]; single oral dose 25 mg, healthy volunteers, n = 6, read-out: Tmax Median
  Tmax: 0.5 h
[2]; [8]
  AUC(0-inf): 1.18 µM·h
  concentration at 12 h: 6.36 nM
  CLo (apparent oral clearance) Mean: 74.5 L/h
[2]; single oral dose 40 mg, healthy volunteers, n = 6, read-out: Cmax Mean
  Cmax: 0.505 µM
[2]; single oral dose 40 mg, healthy volunteers, n = 6, read-out: Tmax Median
  Tmax: 0.5 h
[2]; [9]
  AUC(0-inf): 3.2 µM·h
  concentration at 12 h: 20.4 nM
[2]; single oral dose 80 mg, healthy volunteers, n = 12, read-out: Cmax Mean
  Cmax: 1.42 µM
[2]; single oral dose 80 mg, healthy volunteers, n = 12, read-out: Tmax Median
  Tmax: 0.5 h
[2]; [10]
  AUC(0-inf): 4.77 µM·h
  concentration at 12 h: 30.3 nM
  CLo (apparent oral clearance) Mean: 56.0 L/h
[2]; single oral dose 120 mg, healthy volunteers, n = 6, read-out: Cmax Mean
  Cmax: 1.94 µM
[2]; single oral dose 120 mg, healthy volunteers, n = 6, read-out: Tmax Median
  Tmax: 0.5 h
[2]; [11]
  AUC(0-inf): 7.89 µM·h
  concentration at 12 h: 49 nM
  CLo (apparent oral clearance) Mean: 61.6 L/h
[2]; single oral dose 225 mg, healthy volunteers, n = 6, read-out: Cmax Mean
  Cmax: 3.14 µM
[2]; single oral dose 225 mg, healthy volunteers, n = 6, read-out: Tmax Median
  Tmax: 0.75 h
[2]; [12]
  AUC(0-inf): 23.6 µM·h
  concentration at 12 h: 153 nM
  CLo (apparent oral clearance) Mean: 32.0 L/h
[2]; single oral dose 345 mg, healthy volunteers, n = 6, read-out: Cmax Mean
  Cmax: 11 µM
[2]; single oral dose 345 mg, healthy volunteers, n = 6, read-out: Tmax Median
  Tmax: 0.75 h
[2]; [13]
  AUC(0-inf): 30.8 µM·h
  concentration at 12 h: 167 nM
  CLo (apparent oral clearance) Mean: 38.6 L/h
[2]; single oral dose 530 mg, healthy volunteers, n = 6, read-out: Cmax Mean
  Cmax: 13.8 µM
[2]; single oral dose 530 mg, healthy volunteers, n = 6, read-out: Tmax Median
  Tmax: 0.5 h
[2]; upon oral administration
  oral absorption: rapidly and well absorbed
[3]; [14]
  decrease in AUC with food: about 23%
  decrease in Cmax with food: about 40%
[3]; [15]
  AUC (0-t) Geometric Mean Ratio: 0.767
  AUC (0-∞) Geometric Mean Ratio: 0.767
  Cmax Geometric Mean Ratio: 0.597
[3]; human, plasma, Fasted, 225 mg single oral dose, male subjects, n = 6, read-out: Tmax (median)
  Tmax: 0.5 h
[3]; [16]
  AUC(0-inf): 12.5 ± 2.79 µM·h
  AUC(0-t): 12.4 ± 2.79 µM·h
  Cmax: 5700 ± 1420 nM
[3]; [17]
  AUC(0-inf): 9.49 ± 1.71 µM·h
  AUC(0-t): 9.48 ± 1.71 µM·h
  Cmax: 3410 ± 832 nM
[4]; fasted subjects, single dose of 225 mg
  differences in pharmacokinetics due to gender: No apparent differences
[4]; [18]
  half-life: 5.93 ± 0.66 h
  AUC(0-inf): 11.4 ± 2.17 µM·h
  Cmax: 6650 ± 1750 nM
  Tmax: 0.51 h
[4]; [19]
  half-life: 5.53 ± 0.88 h
  AUC(0-inf): 7.89 ± 1.51 µM·h
  Cmax: 3140 ± 511 nM
  Tmax: 0.75 h
[4]; [20]
  half-life: 6.19 ± 1.21 h
  AUC(0-inf): 12.5 ± 2.79 µM·h
  Cmax: 5700 ± 1420 nM
  Tmax: 0.5 h
[5]
  CLo (apparent oral clearance) Mean: 57.3 L/h
